Measurements taken from PubChem BioAssay (NCI).
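Step 1: Grow cells in 96-well plates. Step 2: Expose to compound for 48 hours at 5 concentrations. Step 3: Interpolate endpoints linearly; if unreached, use highest concentration. GI50: concentration for 50% inhibition of growth. TGI marks complete inhibition of growth.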

Columns and labels:
Experiment in all cases: NCI anticancer screen, dose series, 48 h
HS 578T breast = test system: HS 578T breast
K-562 leukemia = test system: K-562 leukemia
NCI-H226 lung = test system: NCI-H226 lung
OVCAR-5 ovarian = test system: OVCAR-5 ovarian
SK-MEL-2 melanoma = test system: SK-MEL-2 melanoma
UO-31 renal = test system: UO-31 renal
EKVX NSCLC = test system: EKVX NSCLC

**Q.** For `CCCCC(=O)N/N=C/c1cc(I)cc(I)c1O`, which GI50 (HS 578T breast) is on record?
**A.** 7.92 µM

**Q.** And the TGI (HS 578T breast)?
**A.** 54.4 µM

**Q.** And the GI50 (K-562 leukemia)?
**A.** 2.99 µM

**Q.** What about the TGI (K-562 leukemia) of the same compound?
**A.** 15.9 µM

**Q.** And the GI50 (NCI-H226 lung)?
**A.** 5.93 µM

**Q.** What about the TGI (NCI-H226 lung) of the same compound?
**A.** 36.7 µM

**Q.** What about the GI50 (OVCAR-5 ovarian) of the same compound?
**A.** 12.6 µM

**Q.** And the TGI (OVCAR-5 ovarian)?
**A.** > 100 µM

**Q.** What about the GI50 (SK-MEL-2 melanoma) of the same compound?
**A.** 3.22 µM

**Q.** What about the TGI (SK-MEL-2 melanoma) of the same compound?
**A.** 14.4 µM

**Q.** What about the GI50 (UO-31 renal) of the same compound?
**A.** 1.28 µM

**Q.** What about the TGI (UO-31 renal) of the same compound?
**A.** 11.1 µM

**Q.** What does the source list for `CC(=O)OC1COC(S[As](C)C)C(OC(C)=O)C1OC(C)=O` (stereo not drawn)?
**A.** GI50 (EKVX NSCLC): 2.07 µM; TGI (EKVX NSCLC): 17.1 µM; GI50 (HS 578T breast): 0.344 µM; TGI (HS 578T breast): 0.916 µM; GI50 (K-562 leukemia): 0.0176 µM; TGI (K-562 leukemia): 0.0913 µM; GI50 (NCI-H226 lung): 1.47 µM; TGI (NCI-H226 lung): 7.9 µM; GI50 (OVCAR-5 ovarian): 0.226 µM; TGI (OVCAR-5 ovarian): 1.8 µM; GI50 (SK-MEL-2 melanoma): 0.429 µM; TGI (SK-MEL-2 melanoma): 1.99 µM; GI50 (UO-31 renal): 0.102 µM; TGI (UO-31 renal): 0.805 µM

**Q.** Which results are given for `O=C(COc1cccc(/C=C2\COc3ccccc3C2=O)c1)Nc1nccs1`?
**A.** GI50 (EKVX NSCLC): 4.11 µM; TGI (EKVX NSCLC): 17.1 µM; GI50 (HS 578T breast): 2.67 µM; TGI (HS 578T breast): 10.9 µM; GI50 (K-562 leukemia): 1.44 µM; TGI (K-562 leukemia): 29.2 µM; GI50 (NCI-H226 lung): 4.62 µM; TGI (NCI-H226 lung): 25.1 µM; GI50 (OVCAR-5 ovarian): 2.65 µM; TGI (OVCAR-5 ovarian): 10.1 µM; GI50 (SK-MEL-2 melanoma): 1.88 µM; TGI (SK-MEL-2 melanoma): 5.05 µM; GI50 (UO-31 renal): 1.52 µM; TGI (UO-31 renal): 2.91 µM

**Q.** `Nc1ccc2c(c1)C(=O)c1c(F)cccc1-2` was tested. Which TGI (EKVX NSCLC) did it give?
**A.** 37.7 µM

**Q.** What about the TGI (HS 578T breast) of the same compound?
**A.** > 100 µM

**Q.** And the TGI (NCI-H226 lung)?
**A.** > 100 µM

**Q.** And the TGI (SK-MEL-2 melanoma)?
**A.** > 100 µM

**Q.** What about the TGI (UO-31 renal) of the same compound?
**A.** > 100 µM

**Q.** `CC1(C)N=C(N)N=C(N)N1c1ccc(F)c(C(F)(F)F)c1` was tested. Which GI50 (EKVX NSCLC) did it give?
**A.** 1.53 µM

**Q.** And the TGI (EKVX NSCLC)?
**A.** > 100 µM

**Q.** What about the GI50 (HS 578T breast) of the same compound?
**A.** 21.2 µM

**Q.** And the TGI (HS 578T breast)?
**A.** > 100 µM

**Q.** What about the GI50 (K-562 leukemia) of the same compound?
**A.** 0.121 µM

**Q.** And the TGI (K-562 leukemia)?
**A.** > 100 µM

**Q.** And the GI50 (NCI-H226 lung)?
**A.** > 27.6 µM

**Q.** What about the TGI (NCI-H226 lung) of the same compound?
**A.** > 100 µM

**Q.** What about the GI50 (OVCAR-5 ovarian) of the same compound?
**A.** > 100 µM

**Q.** What about the TGI (OVCAR-5 ovarian) of the same compound?
**A.** > 100 µM

**Q.** And the GI50 (SK-MEL-2 melanoma)?
**A.** > 27.9 µM

**Q.** What about the TGI (SK-MEL-2 melanoma) of the same compound?
**A.** > 100 µM

**Q.** What about the GI50 (UO-31 renal) of the same compound?
**A.** 8.86 µM

**Q.** And the TGI (UO-31 renal)?
**A.** > 100 µM

**Q.** What does the source list for `COc1ccc2[nH]cc(-c3nc(-c4cn(C)c5ccncc45)cs3)c2c1`?
**A.** GI50 (EKVX NSCLC): 1.92 µM; TGI (EKVX NSCLC): 3.92 µM; GI50 (HS 578T breast): 14.7 µM; TGI (HS 578T breast): 41.6 µM; GI50 (NCI-H226 lung): 18.3 µM; TGI (NCI-H226 lung): 45.9 µM; GI50 (OVCAR-5 ovarian): 2 µM; TGI (OVCAR-5 ovarian): 3.6 µM; GI50 (SK-MEL-2 melanoma): 15.8 µM; TGI (SK-MEL-2 melanoma): 30.1 µM; GI50 (UO-31 renal): 1.8 µM; TGI (UO-31 renal): 3.36 µM

**Q.** Which results are given for `O=C(N/N=C1\CCc2ccccc2C1)N/N=C1\CCc2ccccc2C1`?
**A.** TGI (EKVX NSCLC): > 10 µM; TGI (K-562 leukemia): > 10 µM; TGI (NCI-H226 lung): > 10 µM; TGI (OVCAR-5 ovarian): > 10 µM; TGI (SK-MEL-2 melanoma): > 10 µM; TGI (UO-31 renal): > 10 µM

**Q.** How did the GI50 (EKVX NSCLC) turn out when `Nc1cc(-c2ccccc2)ccc1O` was run?
**A.** 82.2 µM

**Q.** And the TGI (EKVX NSCLC)?
**A.** > 100 µM

**Q.** What about the GI50 (K-562 leukemia) of the same compound?
**A.** > 100 µM

**Q.** And the TGI (K-562 leukemia)?
**A.** > 100 µM

**Q.** And the GI50 (NCI-H226 lung)?
**A.** > 100 µM

**Q.** What about the TGI (NCI-H226 lung) of the same compound?
**A.** > 100 µM

**Q.** And the GI50 (OVCAR-5 ovarian)?
**A.** > 100 µM

**Q.** What about the TGI (OVCAR-5 ovarian) of the same compound?
**A.** > 100 µM

**Q.** What about the GI50 (SK-MEL-2 melanoma) of the same compound?
**A.** > 100 µM

**Q.** What about the TGI (SK-MEL-2 melanoma) of the same compound?
**A.** > 100 µM

**Q.** And the GI50 (UO-31 renal)?
**A.** 34 µM

**Q.** And the TGI (UO-31 renal)?
**A.** > 100 µM

**Q.** `COC(=O)C1=Nc2c(C)nn(-c3ccccc3)c2N=C(c2ccc(C)cc2)C1` was tested. Which TGI (HS 578T breast) did it give?
**A.** > 10 µM

**Q.** What about the TGI (K-562 leukemia) of the same compound?
**A.** > 10 µM

**Q.** What does the source list for `COC(CCP(=O)(c1ccccc1)c1ccccc1)(C(=O)c1ccccc1)c1ccccc1` (stereo not drawn)?
**A.** GI50 (EKVX NSCLC): 4.37 µM; TGI (EKVX NSCLC): 16.9 µM; GI50 (HS 578T breast): 4.81 µM; TGI (HS 578T breast): 23.1 µM; GI50 (NCI-H226 lung): 2.19 µM; TGI (NCI-H226 lung): 15.7 µM; GI50 (OVCAR-5 ovarian): 10.1 µM; TGI (OVCAR-5 ovarian): 23.7 µM; GI50 (UO-31 renal): 2.46 µM; TGI (UO-31 renal): 16.9 µM

**Q.** What does the source list for `C=C=C(C)[Si](C)(C)C`?
**A.** TGI (HS 578T breast): > 100 µM; TGI (K-562 leukemia): > 100 µM; TGI (NCI-H226 lung): > 100 µM; TGI (OVCAR-5 ovarian): > 100 µM; TGI (SK-MEL-2 melanoma): > 100 µM; TGI (UO-31 renal): > 100 µM

**Q.** What does the source list for `COc1ccc(C(O)CNC(=O)c2ccccc2)cc1` (stereo not drawn)?
**A.** TGI (EKVX NSCLC): > 100 µM; TGI (HS 578T breast): > 100 µM; TGI (K-562 leukemia): > 100 µM; TGI (NCI-H226 lung): > 100 µM; TGI (OVCAR-5 ovarian): > 100 µM; TGI (SK-MEL-2 melanoma): > 100 µM
